Experimental data as given in the SangsterLogP compilation.

CCCCCCCOc1ccccc1NC(=O)OCCN(C)C
logP: 2.5

CCCCCCCOc1ccc(NC(=O)OCCN(C)C)cc1
logP: 2.93

CCCCCOc1cccc(NC(=O)OCCN(C)C)c1
logP: 1.72

CCCCCCOc1cccc(NC(=O)OCCN(C)C)c1
logP: 2.01

CCCCOc1cccc(NC(=O)OCCN(C)C)c1
logP: 1.35

CCCCCCCCCCOc1ccccc1NC(=O)OCCN(C)C
logP: 3.82

CCCCCCCCOc1ccc(NC(=O)OCCN(C)C)cc1
logP: 3.26

CCOc1cccc(NC(=O)OCCN(C)C)c1
logP: 0.8

CCCOc1cccc(NC(=O)OCCN(C)C)c1
logP: 1.04

CCCCCCCCCCOc1ccc(NC(=O)OCCN(C)C)cc1
logP: 4.02

CCCCCOc1ccc(NC(=O)OCCN(C)C)cc1
logP: 2.11

CCOc1ccccc1NC(=O)OCCN(C)C
logP: 1.15

CCCCCCOc1ccc(NC(=O)OCCN(C)C)cc1
logP: 2.47

COc1ccc(NC(=O)OCCN(C)C)cc1
logP: 0.97

CCCCOc1ccccc1NC(=O)OCCN(C)C
logP: 1.5

CCCCCCCCOc1ccccc1NC(=O)OCCN(C)C
logP: 2.98

CCCOc1ccccc1NC(=O)OCCN(C)C
logP: 1.24

CCCOc1ccc(NC(=O)OCCN(C)C)cc1
logP: 1.41

CCCCCCCCCOc1cccc(NC(=O)OCCN(C)C)c1
logP: 3.21

CCCCCCOc1ccccc1NC(=O)OCCN(C)C
logP: 2.13

CCCCCCCCOc1cccc(NC(=O)OCCN(C)C)c1
logP: 2.87

CCCCCOc1ccccc1NC(=O)OCCN(C)C
logP: 1.83

CCCCCCCOc1cccc(NC(=O)OCCN(C)C)c1
logP: 2.43

CCCCCCCCCOc1ccccc1NC(=O)OCCN(C)C
logP: 3.35

COc1ccccc1NC(=O)OCCN(C)C
logP: 1.15

CCCCOc1ccc(NC(=O)OCCN(C)C)cc1
logP: 1.77

CCOc1ccc(NC(=O)OCCN(C)C)cc1
logP: 1.14
